Numbers after ± are expanded uncertainties.
What was measured:
[1] = 101 kPa, Liquid, Vibrating tube method
[2] = mn = molality of the nth substance listed, in mol/kg; conditions: 101 kPa, Liquid, Vibrating tube method, m2 = 0

| Compound | mass density ([1]; 283.15 K) [kg/m3] | mass density ([1]; 293.15 K) [kg/m3] | mass density ([1]; 298.15 K) [kg/m3] | mass density ([1]; 303.15 K) [kg/m3] | mass density ([1]; 313.15 K) [kg/m3] | mass density ([1]; 323.15 K) [kg/m3] | mass density ([1]; 333.15 K) [kg/m3] | mass density ([2]; 283.15 K) [kg/m3] | mass density ([2]; 293.15 K) [kg/m3] | mass density ([2]; 298.15 K) [kg/m3] | mass density ([2]; 303.15 K) [kg/m3] | mass density ([2]; 313.15 K) [kg/m3] | mass density ([2]; 323.15 K) [kg/m3] | mass density ([2]; 333.15 K) [kg/m3] |
| --- | --- | --- | --- | --- | --- | --- | --- | --- | --- | --- | --- | --- | --- | --- |
| CN(C)C=O [dimethylformamide] | 958.07 ± 0.3 | 948.56 ± 0.3 | 943.79 ± 0.31 | 939.01 ± 0.31 | 929.43 ± 0.31 | 919.81 ± 0.31 | 910.11 ± 0.31 | – | – | – | – | – | – | – |
| CN(C)C=O [dimethylformamide] + O=S(=O)([O-])C(F)(F)F.[Na+] | – | – | – | – | – | – | – | 958.07 ± 0.3 | 948.56 ± 0.3 | 943.79 ± 0.31 | 939.01 ± 0.31 | 929.43 ± 0.31 | 919.81 ± 0.31 | 910.11 ± 0.31 |
| CC(=O)N(C)C [N,N-dimethylethanamide] | 950.04 ± 0.3 | 940.83 ± 0.3 | 936.22 ± 0.3 | 931.61 ± 0.3 | 922.35 ± 0.3 | 913.08 ± 0.3 | 903.76 ± 0.3 | – | – | – | – | – | – | – |
| CC(=O)N(C)C [N,N-dimethylethanamide] + O=S(=O)([O-])C(F)(F)F.[Na+] | – | – | – | – | – | – | – | 950.04 ± 0.3 | 940.83 ± 0.3 | 936.22 ± 0.3 | 931.61 ± 0.3 | 922.35 ± 0.3 | 913.08 ± 0.3 | 903.76 ± 0.3 |

Source: the NIST ThermoML archive (doi:10.1016/j.jct.2012.11.004)
